How the values were obtained:
[1] = test system: FMD-NSPCs (fetal midbrain derived neural stem/progenitor cells); assay: Differentiation of neural stem cells into dopaminergic neurons, immunochemical staining for TH and Tuj1; type: cell-based, human; details: FIG. 3; FA: 0.1 mM; over time of differentiation
FMD-NPCs = assay: Differentiation rate by subculture number, TH expression measured by fluorescence intensity; type: cell-based, human; details: FIG. 11; as the cells were subcultured
Source text: For each group, neural stem cells (A) subcultured less than 10 times, (B) subcultured 10 or more times and 20 or less times, (C) subcultured 20 or more times were used to compare average values, to compare and analyze differentiation rates according to a subcultured number.

SMILES: CCCCc1ccc(C(=O)O)nc1 [FA alone, 5-butylpicolinic acid]
- Tuj1 expression [1]: increased over time
- expression of TH [1]: decreased over time
- rate of differentiation into TH (FMD-NPCs): gradually decreased

Source: patent US20230330151A1, “COMPOSITION FOR PROMOTING DIFFERENTIATION OF NEURAL STEM CELLS INTO DOPAMINERGIC NEURONS” (CHA UNIVERSITY INDUSTRY-ACADEMIC COOPERATION FOUNDATION, priority 2020, published 2023)
